Results from patent US10101331B2, “Methods of evaluating patients using E-cadherin or vimentin” (AGIOS PHARMACEUTICALS, INC, priority 2012, dated 2018).

How the values were obtained:
Format in all cases: cell-based
NCI-H23 = assay: Lung cancer cell line panel screened for sensitivity to BPTES, 72 hr proliferation assay
From the text: (§1) Of these, 44 of the cell lines have been classified as non-small cell lung cancer (NSCLC). […] Four of the top 25 transcriptional/cellular pathways were related to the epithelial-mesenchymal transition (EMT) (ranks 1, 15, 23, 25 of FIG. 2). […] Low E-cadherin/high vimentin are well-defined markers of cells that have a mesenchymal phenotype as characterized for example, in any one of the following references: (Yauch et al., (2005) Cin Cancer Res 11:24; Savagner et al., (2010) Ann Oncol. 21(suppl 7): vii89; Thiery et al., (2002) Nature Reviews Cancer June vol 2:442).

NCI-H1770 = assay: as above
From the text: as §1

NCI-H1734 = assay: as above
From the text: as §1

NCI-H1155 = assay: as above
From the text: as §1

NCI-H1666 = assay: as above
From the text: as §1

CALU-6 = assay: as above; details: CALU-6 cell line
From the text: as §1

NCI-H2081 = assay: as above
From the text: as §1

NCI-H524 = assay: as above
From the text: as §1

NCI-H1650 = assay: as above
From the text: as §1

NCI-H1581 = assay: as above
From the text: as §1

NCI-H292 = assay: as above
From the text: as §1

COR-L23 = assay: as above
From the text: as §1

NCI-H1299 = assay: as above
From the text: as §1

NCI-H82 = assay: as above
From the text: as §1

NCI-H2030 = assay: as above
From the text: as §1

NCI-H1993 = assay: as above
From the text: as §1

SW-1573 = assay: as above
From the text: as §1

A549 = assay: as above
From the text: as §1

NCI-H460 = assay: as above
From the text: as §1

NCI-H2009 = assay: as above
From the text: as §1

DMS-53 = assay: as above; details: DMS-53 cell line
From the text: as §1

NCI-H596 = assay: as above
From the text: as §1

SW900 = assay: as above
From the text: as §1

NCI-H2171 = assay: as above
From the text: as §1

NCI-H522 = assay: as above
From the text: as §1

COR-L279 = assay: as above
From the text: as §1

NCI-H1838 = assay: as above
From the text: as §1

NCI-H2170 = assay: as above
From the text: as §1

NCI-H1651 = assay: as above
From the text: as §1

A427 = assay: as above
From the text: as §1

NCI-H1092 = assay: as above
From the text: as §1

NCI-H2126 = assay: as above
From the text: as §1

A427 cells = assay: 13C(5)-Gln labeling of glutamate and aspartate, LC/MS; details: 1 hr drug pre-treatment, 2 hr 13C(5)-Gln labeling
Protocol: A427 parent cells or lines stably expressing pLVX empty vector control (Con), wild-type GAC (GAC), or a BPTES-resistant GAC enzyme (GAC-BR) were treated with indicated concentrations of drugs in a 72 hr proliferation assay. […] Calculated p-values from student t-test, * (3×10^−8), **(10^−9), ^#(10^−7), ^##(2×10^−6).
Several groups have shown that GLS inhibition leads to a decrease in cellular tricarboxylic acid cycle (TCA) intermediates downstream of GLS activity (P. Gao et al. Nature 458, 762 (2009); T. Cheng et al. Proceedings of the National Academy of Sciences 108, 8674 (2011)). Measurement of glutamate (the product of the glutaminase reaction) and aspartate (which derives both carbon and nitrogen from glutamate) are particularly sensitive readouts of glutaminase activity (FIG. 13). ^13C labeled carbon in cells pre-treated with drug was tracked for 1 hr, followed by a 2 hr ^13C(5)-Gln labeling period, via LC/MS.

For `O=C(Cc1ccccc1)Nc1nnc(CCSCCc2nnc(NC(=O)Cc3ccccc3)s2)s1` [BPTES], the “Max Inh @ 10 uM (%)” value (NCI-H23; NCI-H23, 10 uM) was 45%, the “Mu/max @10 uM” value (NCI-H23; NCI-H23, 10 uM) was 0.60 and the “μ/μmax @10 uM” value (NCI-H23; NCI-H23, 10 uM) was 0.60. It also gave a μ/μmax (NCI-H23; NCI-H23 cell line) of 0.60, a μ/μmax (NCI-H1770) of 0.56 and a μ/μmax (NCI-H1734) of −0.12. The μ/μmax (NCI-H1155) was 0.93, the μ/μmax (NCI-H1666) was 1.00 and the μ/μmax (CALU-6) was 0.82. For the same compound, the μ/μmax (NCI-H2081) was 1.00, the μ/μmax (NCI-H524) was 0.53 and the μ/μmax (NCI-H1650) was 0.26. It also gave a μ/μmax (NCI-H1581) of 0.51, a μ/μmax (NCI-H292) of 0.89 and a μ/μmax (COR-L23) of 0.96. For the same compound, the μ/μmax (NCI-H1299) was 0.49, the μ/μmax (NCI-H82) was 0.90 and the “Max Inh @ 10 uM (%)” value (NCI-H2030; NCI-H2030, 10 uM) was 87%. The “Mu/max @10 uM” value (NCI-H2030; NCI-H2030, 10 uM) was 0.37, the “μ/μmax @10 uM” value (NCI-H2030; NCI-H2030, 10 uM) was 0.37 and the μ/μmax (NCI-H2030; NCI-H2030 cell line) was 0.37. For the same compound, the μ/μmax (NCI-H1993) was 0.89, the “Max Inh @ 10 uM (%)” value (SW-1573; SW-1573, 10 uM) was 68% and the “Mu/max @10 uM” value (SW-1573; SW-1573, 10 uM) was 0.12. The “μ/μmax @10 uM” value (SW-1573; SW-1573, 10 uM) was 0.12, the μ/μmax (SW-1573; SW-1573 cell line) was 0.12 and the “Max Inh @ 10 uM (%)” value (A549; A549, 10 uM) was 73%. For the same compound, the “Mu/max @10 uM” value (A549; A549, 10 uM) was 0.53, the “μ/μmax @10 uM” value (A549; A549, 10 uM) was 0.53 and the μ/μmax (A549; A549 cell line) was 0.53. For the same compound, the “Max Inh @ 10 uM (%)” value (NCI-H460; NCI-H460, 10 uM) was 18%, the “Mu/max @10 uM” value (NCI-H460; NCI-H460, 10 uM) was 0.92 and the “μ/μmax @10 uM” value (NCI-H460; NCI-H460, 10 uM) was 0.92. The μ/μmax (NCI-H460; NCI-H460 cell line) was 0.92, the μ/μmax (NCI-H2009) was 0.96 and the μ/μmax (DMS-53) was 0.93. For the same compound, the “Max Inh @ 10 uM (%)” value (NCI-H596; NCI-H596, 10 uM) was 13%, the “Mu/max @10 uM” value (NCI-H596; NCI-H596, 10 uM) was 0.84 and the “μ/μmax @10 uM” value (NCI-H596; NCI-H596, 10 uM) was 0.84. It also gave a μ/μmax (NCI-H596; NCI-H596 cell line) of 0.84, a μ/μmax (SW900) of 0.70 and a μ/μmax (NCI-H2171) of 0.88. The “Max Inh @ 10 uM (%)” value (NCI-H522; NCI-H522, 10 uM) was 39%, the “Mu/max @10 uM” value (NCI-H522; NCI-H522, 10 uM) was 0.61 and the “μ/μmax @10 uM” value (NCI-H522; NCI-H522, 10 uM) was 0.61. It also gave a μ/μmax (NCI-H522; NCI-H522 cell line) of 0.61, a μ/μmax (COR-L279) of 0.88 and a μ/μmax (NCI-H1838) of 0.63. The μ/μmax (NCI-H2170) was 0.82, the μ/μmax (NCI-H1651) was 1.00 and the “Max Inh @ 10 uM (%)” value (A427; A427, 10 uM) was 86%. For the same compound, the “Mu/max @10 uM” value (A427; A427, 10 uM) was −0.49, the “μ/μmax @10 uM” value (A427; A427, 10 uM) was −0.49 and the μ/μmax (A427; A427 cell line) was −0.49. The μ/μmax (NCI-H1092) was 0.77, the μ/μmax (NCI-H2126) was 1.00 and the “13C label accumulation in glutamate and aspartate” value (A427 cells) was “decreased label accumulation”.
